Results: patent US10160948B2, “Pluripotent embryonic-like stem cells, compositions, methods and uses thereof” (ABT HOLDING COMPANY, priority 1999, dated 2018)
Marks after values point to notes of the source that are not given here.

Tests used:
[1] = test system: progenitor stem cells; assay: Proliferation and phenotypic responses to bioactive factors: progenitor cells; type: cell-based; settings: for Phenotypic Expression, Progenitor: presence and approximate distribution of differentiated phenotypes within the culture wells
From the text: (§1) Having access to mixed populations of progenitor stem cells, progenitor stem cell clones, and pluripotent stem cell clones permits one to address the influence of various bioactive factors (e.g. recombinant growth factors, purified compounds, and novel inductive factors) on the growth characteristics and phenotypic expression of these stem cells.
(§2) Cryopreserved cells are thawed and plated in MSC-1 at 5, 10, or 20×10^3 cells per well of gelatinized 24-well plates following the standard protocol. Twenty-four hours after initial plating the medium is changed to testing medium (TM) 1 to 6 (TM-1, TM-2, TM-3, TM-4, TM-5, or TM-6). TM-1 to TM-4 consist of Ultraculture (cat. no. 12-725B, lot. nos. OMO455 [TM-1], 1M1724 [TM-2], 2M0420 [TM-3], or 2M0274 [TM-4], Bio-Whittaker, Walkersville, Md.), medium (EMEM or Opti-MEM 0.01 mM β-mercaptoethanol), and 1% (v/v) antibiotic-antimycotic, pH 7.4. TM-5 consists of 98% (v/v) medium, 1% (v/v) HS, and 1% (v/v) antibiotic-antimycotic, pH 7.4. TM-6 consists of 98.5% (v/v) medium, 0.5% (v/v) HS, and 1% (v/v) antibiotic-antimycotic, pH 7.4. […] Four testing media (TM#'s 1-4), each containing various concentrations of Ultraculture, were used as. […] The four Ultraculture-based testing media were: TM-1=15% (v/v) Ultraculture (Lot no. OMO455): 84% (v/v) medium: 1% (v/v) antibiotics; TM-2=15% (v/v) Ultraculture (Lot no. 1M1724): 84% (v/v) medium: 1% (v/v) antibiotics; TM-3=50% (v/v) Ultraculture (Lot no. 2M0420): 49% (v/v) medium: 1% (v/v) antibiotics; and TM-4=75% (v/v) Ultraculture (Lot no. 2M0274): 24% (v/v) medium: 1% (v/v) antibiotics. Pre-incubation for 24 hr in testing medium alone is used to wash out any potential synergistic components in the MSC-1 medium. Twenty-four hours later the testing medium is changed to one of the following. For controls, TM-1 to TM-6 alone is used. To identify clones of progenitor cells, the medium is replaced with TM-1 to TM-6 containing 2 μg/ml insulin (Sigma), an agent that accelerates the appearance of phenotypic expression markers in progenitor cells (TABLE 12). To identify clones of pluripotent cells, the medium is replaced with TM-1 to TM-6 containing 10^−10 to 10^−6 M dexamethasone (Sigma), a general non-specific lineage-inductive agent (TABLE 13). Control and treated cultures are propagated for an additional 30-45 days with medium changes every other day. Four culture wells are used per concentration per experiment. During the 0-45 day time period the cultures are examined subjectively for changes in morphological characteristics on a daily basis. Alterations in phenotypic expression are correlated with the days of treatment and associated insulin or dexamethasone concentrations. The experiment is then repeated utilizing these parameters to confirm objectively the phenotypic expression markers using established histological, functional/histochemical, ELICA/flow cytometry, and molecular assays (TABLE 13).

[2] = test system: pluripotent stem cells; assay: Proliferation and phenotypic responses to bioactive factors: pluripotent cells; type: cell-based; settings: for Phenotypic Expression, Pluripotent: presence and approximate distribution of differentiated phenotypes within the culture wells
From the text: as §1, §2

[3] = test system: Swiss-3T3 cells; assay: Dexamethasone treatment of Swiss-3T3 cells, assay of phenotypes; type: cell-based, mouse
Procedure: Frozen 3T3 cells were then thawed, cell viability was determined using 0.4% Typan Blue in PBS with a hemocytometer (Denhardt et al., 1991; Domin and Rozengurt, 1993), and the cells were plated in 24 well plates (Corning Glassworks, Corning, N.Y.), precoated with 1% gelatin at a density of 5000 cells/well. Cells were cultured in EMEM containing 10% horse serum and varying concentrations of dexamethasone (Sigma, Salom, Mo.). Four wells served as controls and received medium without dexamethasone. Four wells each received medium containing 10^−10 M, 10^−9 M, 10^−8 M, 10^−7 M, 10^−6 M dexamethasone. The medium was changed every other day and cultures were examined using phase contrast microscopy for the appearance of different phenotypes.
• Bone—The presence of calcified tissue was assayed by Von Kossa's staining of calcium phosphate as described by Humason. Briefly, the culture medium was removed, and the plates were rinsed twice with the DPBS. The cells were fixed with 0.5 ml of 10% formalin for 3-5 minutes, then rinsed four times with distilled water. One half of a milliliter of freshly prepared 2% silver nitrate solution was then added, and the cells were incubated in the dark for 10 minutes. After incubation, the silver nitrate solution was removed and the cells were rinsed five times with distilled water. Approximately 0.5 ml of distilled water was left on each well. The plate was exposed to bright light for 15 minutes against a white background to reflect light. The plates were again rinsed five times with distilled water and quickly dehydrated with 100% ethanol. The plates were made permanent with glycerin jelly. Confirmation of the presence of calcium phosphate was performed by pretreating selected cultures with 1% weight/volume [ethylene bis(oxyethylenenitrilo)]-tetraacetic acid, a specific calcium chelator, in Ca, MG-free buffer for 1 hour before incubation in the silver nitrate solution. • Muscle—The cells were stained with the MF-20 antibody to sarcomeric myosin (Hybridoma Bank, Ames Iowa) by means of a modified procedure of Young et. al., 1992b. […]

[4] = test system: cells isolated from granulation tissue; assay: Dexamethasone treatment of cells from granulation tissue (wound chambers), assays for phenotypes; type: cell-based, rat
[5] = test system: cardiac myocytes; assay: Beat rate of binucleated beating cells in dexamethasone-treated Swiss-3T3 cultures exposed to isoproterenol and propanolol; type: cell-based, mouse
From the text: The wells were then washed six times with EMEM+10% horse serum and viewed on a Nikon Diaphot with fluorescent attachment. • Cardiac muscle—Cardiac myocytes were identified based on their large binucleated nuclei and their reactions to inotropic and chronotropic agents.

**Q.** Which results are given for IGF-I: insulin-like growth factor-I?
**A.** Proliferation, Progenitor: number of times the agent increased the DNA content per well versus its respective control [1]: 1 times; Phenotypic Expression, Progenitor [1]: All+++; Proliferation, Pluripotent: number of times the agent increased the DNA content per well versus its respective control [2]: 1 times; activity on pluripotent and progenitor stem cells, in words [2]: stimulated lineage-progression in all progenitor cells, but had no measurable effect on pluripotent cells; Phenotypic Expression, Pluripotent [2]: 0

**Q.** For IGF-II: insulin-like growth factor-II, which “Proliferation, Progenitor: number of times the agent increased the DNA content per well versus its respective control” value [1] is on record?
**A.** The value was 1 times.

**Q.** What about the “Phenotypic Expression, Progenitor” value [1] of the same compound?
**A.** Its value is “All+++”.

**Q.** What about the “Proliferation, Pluripotent: number of times the agent increased the DNA content per well versus its respective control” value [2] of the same compound?
**A.** Its value is 1 times.

**Q.** What about the “activity on pluripotent and progenitor stem cells, in words” value (“activity” below) [2] of the same compound?
**A.** Its value is “stimulated lineage-progression in all progenitor cells, but had no measurable effect on pluripotent cells”.

**Q.** What about the “Phenotypic Expression, Pluripotent” value [2] of the same compound?
**A.** The value was 0.

**Q.** Which results are given for “PDGF-AA: Platelet-derived growth factor-AA”?
**A.** Proliferation, Progenitor: number of times the agent increased the DNA content per well versus its respective control [1]: 16 times; Phenotypic Expression, Progenitor [1]: All+; Proliferation, Pluripotent: number of times the agent increased the DNA content per well versus its respective control [2]: 16^b times; activity on pluripotent and progenitor stem cells, in words [2]: stimulated proliferation in pluripotent cells and in all lineages of progenitor cells; Phenotypic Expression, Pluripotent [2]: 0

**Q.** TGF-β was tested. Which “Proliferation, Progenitor: number of times the agent increased the DNA content per well versus its respective control” value [1] did it give?
**A.** The value was “−”.

**Q.** What about the “Phenotypic Expression, Progenitor” value [1] of the same compound?
**A.** The value was “F++”.

**Q.** And the “Proliferation, Pluripotent: number of times the agent increased the DNA content per well versus its respective control” value [2]?
**A.** Its value is “−^c”.

**Q.** What about the “activity” value [2] of the same compound?
**A.** The value was “stimulated lineage-progression in fibrogenic progenitor cells, inhibited lineage-progression in all other progenitor cells, and had no effect on pluripotent cells”.

**Q.** And the “Phenotypic Expression, Pluripotent” value [2]?
**A.** The value was 0.

**Q.** b-FGF: Basic-fibroblast growth factor was tested. Which “Proliferation, Progenitor: number of times the agent increased the DNA content per well versus its respective control” value [1] did it give?
**A.** The value was 1 times.

**Q.** What about the “Phenotypic Expression, Progenitor” value [1] of the same compound?
**A.** Its value is “F++”.

**Q.** And the “Proliferation, Pluripotent: number of times the agent increased the DNA content per well versus its respective control” value [2]?
**A.** The value was 1 times.

**Q.** What about the “activity” value [2] of the same compound?
**A.** The value was “stimulated lineage-progression in fibrogenic progenitor cells, inhibited lineage-progression in all other progenitor cells, and had no effect on pluripotent cells”.

**Q.** And the “Phenotypic Expression, Pluripotent” value [2]?
**A.** Its value is 0.

**Q.** For `C[C@@H]1C[C@H]2[C@@H]3CCC4=CC(=O)C=C[C@]4(C)[C@@]3(F)[C@@H](O)C[C@]2(C)[C@@]1(O)C(=O)CO` [Dex, dexamethasone], which “dexamethasone concentration at which binucleated beating cells appeared” value ([3]; 4 weeks in culture) is on record?
**A.** Its value is 10^−7-10^−6 M.

**Q.** And the “dexamethasone concentration at which myotubes appeared” value ([3]; 14 days)?
**A.** Its value is 10^−9-10^−6 M.

**Q.** And the “dexamethasone concentration at which most adipocytes appeared” value ([3]; after two weeks treatment)?
**A.** The value was 10^−8-10^−6 M.

**Q.** What about the “dexamethasone concentrations at which cartilage nodules appeared” value [4] of the same compound?
**A.** The value was 10^−9-10^−6 M.

**Q.** And the “dexamethasone concentrations at which fibroblasts appeared” value ([4]; after 3 weeks)?
**A.** The value was 10^−9-10^−7 M.

**Q.** What about the “dexamethasone concentrations at which adipocytes appeared” value ([4]; first appeared at 2 weeks) of the same compound?
**A.** The value was 10^−8-10^−6 M.

**Q.** And the “Proliferation, Progenitor: number of times the agent increased the DNA content per well versus its respective control” value [1]?
**A.** The value was “−”.

**Q.** And the “Proliferation, Pluripotent: number of times the agent increased the DNA content per well versus its respective control” value [2]?
**A.** Its value is “−”.

**Q.** Which results are given for `CC(C)NCC(O)c1ccc(O)c(O)c1` (stereo not shown) [Isoproteronol, isoproterenol]?
**A.** beat rate ([5]; cells treated with 10^−6 M isoproterenol): 85 beats per minute; Beats per minute ([5]; n = 5, 10−6M): 87.4± * Beats per minute

**Q.** Which “Proliferation, Progenitor: number of times the agent increased the DNA content per well versus its respective control” value [1] does the source give for “PDGF-BB: platelet-derived growth factor-BB” here?
**A.** The value was 19 times.

**Q.** What about the “Phenotypic Expression, Progenitor” value [1] of the same compound?
**A.** Its value is “All+”.

**Q.** And the “Proliferation, Pluripotent: number of times the agent increased the DNA content per well versus its respective control” value [2]?
**A.** The value was 19 times.

**Q.** And the “activity” value [2]?
**A.** Its value is “stimulated proliferation in pluripotent cells and in all lineages of progenitor cells”.

**Q.** And the “Phenotypic Expression, Pluripotent” value [2]?
**A.** Its value is 0.
